Data as given in US9422261B2, “Heterocyclic resorcinol derivatives, preparation of same and cosmetic uses thereof” (PIERRE FABRE DERMO-COSMETIQUE, priority 2011, dated 2016).
Blank lines part the entries; values can stand above or below the compound they belong to.

Columns and labels:
[1] = Antioxidant ability using chemiluminescence (Photochem, Analytik Jena); details: for μg of sample for 1 μg of Trolox: trapping of superoxide anions, chemiluminescence
From the text: This test is used to determine the antioxidant ability of the molecules. It is a method that generates free radicals by a photochemical signal. The intensity of the oxidation is 1000 times greater than that obtained under normal conditions.
Detection is by chemiluminescence. It enables the evaluation of water-soluble and lipid-soluble antioxidant molecules or extracts.
The results are expressed as equivalents of vitamin C or Trolox (6-hydroxy-2,5,7,8-tetramethylchroman-2-carboxylic acid), respectively. The sensitivity is on the order of the nanomole.
The antioxidant activity studied in this test represents the ability to specifically trap superoxide anions by chemiluminescence.
The quantified results are expressed in Trolox equivalents (standard), or “μg of product for 1 μg of Trolox.” This means that a quantity x of sample is needed to obtain activity equivalent to the activity detected for 1 μg of the standard. This represents antioxidant ability relative to a reference, which frees us from concern about the concentration tested.
The superoxide radical (O2°^−) is generated by a photochemical reaction: L+hv(UV)+O2→L*O2→L°^++O2°^− L*: luminol in the excited state L°^+: luminol radical
Some of the superoxide anions are quenched by the antioxidants. The remaining free radicals are quantified by chemiluminescence. L°^++O2°^−→N2+AP*^2−→AP^2−+hv (luminescence) AP*^2−: aminophthalate in the excited state

B16-F10 cells = experiment: Assay of melanin in B16-F10 cells stimulated with α-MSH; type: cell-based, murine; details: 72 hours, 0.1 μM α-MSH; for Melanin assay, in strains B16F10 (%): negative value indicates inhibition; for IC50: Mus musculus, B16-F10, read-out: Melanin assay, in strains B16F10, IC50
Experimental: This test measures melanin synthesis using a colorimetric assay on a murine melanoma cell line: B16-F10. […] B16-F10 cells are seeded in 96-well plates in DMEM medium supplemented with fetal calf serum (FCS) and then incubated for 24 hours at 37° C., 5% CO2. […] Each concentration of active agent is tested at least in triplicate. […] The total proteins are assayed in the lysate and the results are expressed in mg melanin/mg proteins: The percentage of activity is calculated as follows: A negative value indicates inhibition, whereas a positive value indicates induction of melanin synthesis. Biological Material: • B16-F10 cell line between […] (murine melanocytes) (ATCC, CRL-6475)

[2] = Solubility in aqueous phase; type: physicochemical; details: aqueous phase / aqueous acidic solution
[3] = biological target: tyrosinase polyphenol oxidase (PPO) (Agaricus bisporus, UniProt C7FF04); experiment: Tyrosinase inhibition test, polyphenol oxidase (PPO) function, reference molecules; type: biochemical, mushroom; details: at 25 μM
tyrosinase polyphenol oxidase (PPO), sequence (C7FF04 1-392 limits assumed): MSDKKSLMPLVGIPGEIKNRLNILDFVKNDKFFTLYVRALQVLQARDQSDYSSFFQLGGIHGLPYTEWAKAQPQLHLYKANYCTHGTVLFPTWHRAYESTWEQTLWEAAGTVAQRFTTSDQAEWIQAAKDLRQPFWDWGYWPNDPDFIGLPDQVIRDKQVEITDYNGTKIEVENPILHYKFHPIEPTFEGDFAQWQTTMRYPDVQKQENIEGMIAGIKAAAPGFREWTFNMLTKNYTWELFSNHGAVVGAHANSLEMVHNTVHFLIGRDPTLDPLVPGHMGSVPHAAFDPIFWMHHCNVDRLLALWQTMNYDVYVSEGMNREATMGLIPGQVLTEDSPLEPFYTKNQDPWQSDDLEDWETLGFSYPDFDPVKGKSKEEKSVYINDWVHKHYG
Experimental: (§1) The substrate, L-tyrosine, is transformed by the monophenol monooxygenase functional group into L-DOPA, itself transformed by the tyrosinase's polyphenol oxidase functional group into dopaquinone. The latter will auto-oxidize into dopachrome, which is measured by spectrophotometry at 490 nm.
(§2) More precisely, it is global tyrosinase activity (MPMOg) that is measured since ultimately it is dopachrome that is assayed. Thus, the products tested in terms of MPMOg (measurement of activity on PPO and MPMO) can accumulate the inhibition of the 2 functional groups; • inhibiting only the MPMO functional group in the strict sense (transformation of tyrosine into DOPA) in addition to the PPO test, • inhibiting only PPO.

[4] = biological target: tyrosinase monophenol monooxygenase (MPMO) (Agaricus bisporus, UniProt C7FF04); experiment: biochemical
tyrosinase monophenol monooxygenase (MPMO), sequence (C7FF04 1-392 limits assumed): as above
Experimental: as §1, §2

SMILES: CC(c1ccccn1)c1ccc(O)cc1O (stereo not drawn) [Compound 2, 4-(1-(pyridin-2-yl)ethyl)benzene-1,3-diol]
μg of sample for 1 μg of Trolox [1]: 10.4 μg of sample for 1 μg of Trolox | Melanin assay, in strains B16F10 (%) (B16-F10 cells; at 20 μM): −26% at 20 μM

SMILES: CC(c1cccnc1)c1ccc(O)cc1O (stereo not drawn) [Compound 3, 4-(1-(pyridin-3-yl)ethyl)benzene-1,3-diol]
Solubility in aqueous phase [2]: dissolve the active ingredient in aqueous acidic solution | μg of sample for 1 μg of Trolox [1]: 8.7 μg of sample for 1 μg of Trolox | Melanin assay, in strains B16F10 (%) (B16-F10 cells; at 20 μM): −52% at 20 μM

SMILES: CCCC(c1cccs1)c1ccc(O)cc1O (stereo not drawn) [Compound 31, 4-(1-(thiophene-2-yl)butyl)benzene-1,3-diol]
Melanin assay, in strains B16F10 (%) (B16-F10 cells; at 10 μM): −50% at 10 μM

IC50 (B16-F10 cells): 2400 µM
SMILES: O=c1cc(CO)occ1O [Kojic acid, reference compound]

Solubility in aqueous phase [2]: insoluble in aqueous phase
SMILES: CC(c1ccccc1)c1ccc(O)cc1O (stereo not drawn) [4-(1-phenylethyl)benzene-1,3-diol, reference compound]

melting point: 89.9 °C
SMILES: CC(C)CC(c1cccs1)c1ccc(O)cc1O (stereo not drawn) [Compound 28, 4-(3-methyl-1-(thiophene-2-yl)butyl)benzene-1,3-diol]
Melanin assay, in strains B16F10 (%) (B16-F10 cells; at 10 μM): −52% at 10 μM

SMILES: N[C@@H](CCC(=O)N[C@@H](CS)C(=O)NCC(=O)O)C(=O)O [Reduced glutathione]
% inhibition (PPO) [3]: 55% | IC50 ([4]; read-out: IC50 (MPMO), reference molecules for the test, MPMO): 1 to 2 µM

SMILES: CC(c1ccsc1)c1ccc(O)cc1O (stereo not drawn) [Compound 4, 4-(1-(thiophene-3-yl)ethyl)benzene-1,3-diol]
μg of sample for 1 μg of Trolox [1]: 15.4 μg of sample for 1 μg of Trolox | Melanin assay, in strains B16F10 (%) (B16-F10 cells; at 20 μM): −52% at 20 μM

SMILES: CC(c1nccs1)c1ccc(O)cc1O (stereo not drawn) [Compound 5, 4-(1-(thiazol-2-yl)ethyl)benzene-1,3-diol]
μg of sample for 1 μg of Trolox [1]: 11.7 μg of sample for 1 μg of Trolox | Melanin assay, in strains B16F10 (%) (B16-F10 cells; at 20 μM): −33% at 20 μM

SMILES: O=C(O)CCCC[C@@H]1CCSS1 (racemic) [Lipoic acid, reference compound]
μg of sample for 1 μg of Trolox (scale used to interpret the results) ([1]; reference products of the interpretation scale): NEGATIVE

IC50 (B16-F10 cells): 158 µM | inhibition at 88 µM ([4]; read-out: % inhibition (MPMO)): 57%
SMILES: OC[C@H]1O[C@@H](Oc2ccc(O)cc2)[C@H](O)[C@@H](O)[C@@H]1O [Arbutin, reference compound]

SMILES: CC(c1cccs1)c1ccc(O)cc1O (stereo not drawn) [Compound 1, 4-(1-(thiophene-2-yl)ethyl)benzene-1,3-diol]
μg of sample for 1 μg of Trolox [1]: 13.7 μg of sample for 1 μg of Trolox | Melanin assay, in strains B16F10 (%) (B16-F10 cells; at 20 μM): −50% at 20 μM
